Data as given in patent publication US6753424B1, “Conjugates of DNA interacting groups with steroid hormones for use as nucleic acid transfection agents” (priority 1998, dated 2004).

Columns and labels:
[1] = test system: GR-GFP chimera; assay: Nuclear Transfer Induction assay (NTI), monourethane ligands, HeLa cells; assay type: cell-based; conditions: 1 hr
Description: Conditions: HeLa cells are transiently transfected by CaPO4 with an expression vector encoding a GR-GFP chimera (5 μg in transfection cocktail, 4 cm diameter dishes, DMEM with 3% FCS). After 24 hour expression, ligand is added for 1 hr and cells are fixed with formaldehyde (5 min 4° C.) and inspected by fluorescence microscopy. Fluorescent cells are counted and divided into different classes according to ‘cytoplasmic’ (C) versus ‘nuclear’ (N) localisation of fluorescence.
First column: “Conditions”: Name of compounds added (marked at top: ‘//ligand’), and their concentration (in parentheses) and assay number (01 through 21).
Values are given as percentage of cells displaying the corresponding localisatidn, within each tested condition the sum is 100%.

[2] = test system: GR-GFP chimera; assay: Nuclear Transfer Induction assay (NTI), diurethane ligands, CV-1 cells; assay type: cell-based; conditions: 4 hr
Description: Conditions: CV-1 cells are transiently transfected with DOTAP (Boehringer-Mannheim) with an expression vector encoding a GR-GFP chimera (see 8.1). After 36 hours expression, ligand is added for 4 hr and cells are fixed and counted as given in 8.1.

SMILES | C < N, percentage of cells ([1]; ligand 1.10-6M) [%] | C << N, percentage of cells ([1]; ligand 1.10-6M) [%] | C = N, percentage of cells ([1]; ligand 1.10-6M) [%] | C > N, percentage of cells ([1]; ligand 1.10-6M) [%] | C >> N, percentage of cells ([1]; ligand 1.10-6M) [%] | C < N, percentage of cells ([1]; ligand 1.10-7M) [%] | C << N, percentage of cells ([1]; ligand 1.10-7M) [%] | C = N, percentage of cells ([1]; ligand 1.10-7M) [%] | C > N, percentage of cells ([1]; ligand 1.10-7M) [%] | C >> N, percentage of cells ([1]; ligand 1.10-7M) [%] | C < N, percentage of cells ([2]; ligand 5.10-6M) [%] | C << N, percentage of cells ([2]; ligand 5.10-6M) [%] | C = N, percentage of cells ([2]; ligand 5.10-6M) [%] | C > N, percentage of cells ([2]; ligand 5.10-6M) [%] | C >> N, percentage of cells ([2]; ligand 5.10-6M) [%] | C < N, percentage of cells ([2]; ligand 5.10-7M) [%] | C << N, percentage of cells ([2]; ligand 5.10-7M) [%] | C = N, percentage of cells ([2]; ligand 5.10-7M) [%] | C > N, percentage of cells ([2]; ligand 5.10-7M) [%] | C >> N, percentage of cells ([2]; ligand 5.10-7M) [%] | also measured
COC(=O)CCCCCCCCCCNC(=O)OCC(=O)[C@@]1(O)[C@H](C)CC2C3CCC4=CC(=O)C=CC4(C)[C@@]3(F)C(O)CC21C (stereo partly shown) [DEX-C11-COOCH3, 10-carboxymethyl-n-decyl-1-carboxamicacid-dexamethasone-21-ester] | 50 | 45 | 5 | 0 | 0 | 61 | 7 | 29 | 3 | 0 |  |  |  |  |  |  |  |  |  |  | 
CC1CC2C3CCC4=CC(=O)C=CC4(C)C3(F)C(O)CC2(C)C1(O)C(=O)COC(=O)NCCOC(=O)NCCCNCCCCNCCCN (stereo not shown) [DEX-C4-Sn] |  |  |  |  |  |  |  |  |  |  | 27.6 | 69.5 | 2.9 | 0 | 0 | 4.6 | 0.6 | 67.4 | 15.4 | 12 | C < N, percentage of cells ([2]; ligand 5.10-8M): 1.1%; C << N, percentage of cells ([2]; ligand 5.10-8M): 0%; C = N, percentage of cells ([2]; ligand 5.10-8M): 43.3%; C > N, percentage of cells ([2]; ligand 5.10-8M): 35.8%; C >> N, percentage of cells ([2]; ligand 5.10-8M): 19.8%; C < N, percentage of cells ([2]; ligand 5.10-9M): 0%; C << N, percentage of cells ([2]; ligand 5.10-9M): 0%; C = N, percentage of cells ([2]; ligand 5.10-9M): 28.5%; C > N, percentage of cells ([2]; ligand 5.10-9M): 43.8%; C >> N, percentage of cells ([2]; ligand 5.10-9M): 27.7%
Cc1oc2c(C)c3oc(=O)cc(C)c3cc2c1CNC(=O)OCCCCCCCCCCCNC(=O)OCC(=O)[C@@]1(O)[C@H](C)CC2C3CCC4=CC(=O)C=CC4(C)[C@@]3(F)C(O)CC21C (stereo partly shown) [DEX-C11-Pso] |  |  |  |  |  |  |  |  |  |  | 53.1 | 45 | 1.9 | 0 | 0 | 14.8 | 0 | 58.3 | 25.7 | 1.3 | C < N, percentage of cells ([2]; ligand 5.10-8M): 1.9%; C << N, percentage of cells ([2]; ligand 5.10-8M): 0%; C = N, percentage of cells ([2]; ligand 5.10-8M): 52.9%; C > N, percentage of cells ([2]; ligand 5.10-8M): 37.1%; C >> N, percentage of cells ([2]; ligand 5.10-8M): 8.1%; C < N, percentage of cells ([2]; ligand 5.10-9M): 3.6%; C << N, percentage of cells ([2]; ligand 5.10-9M): 0%; C = N, percentage of cells ([2]; ligand 5.10-9M): 34.2%; C > N, percentage of cells ([2]; ligand 5.10-9M): 52.9%; C >> N, percentage of cells ([2]; ligand 5.10-9M): 9.4%
COC(=O)CCCCCCCCCCNC(=O)OCC(=O)[C@@]1(O)CCC2C3CCC4=CC(=O)CCC4(C)C3C(O)CC21C (stereo partly shown) [CL-C11-COOCH3, 10-carboxymethyl-n-decy-1-carboxamicacid-cortisol-21-ester] | 60 | 13 | 24 | 3 | 0 | 20 | 0 | 55 | 20 | 5 |  |  |  |  |  |  |  |  |  |  | 
CC12CCC(=O)C=C1CCC1C2C(O)CC2(C)C1CC[C@]2(O)C(=O)COC(=O)NCCC(=O)O (stereo partly shown) [CL-C3-COOH, 2-carboxy-ethyl-1-carboxamicacid-cortisol-21-ester] | 13 | 0 | 85 | 2 | 0 | 2 | 0 | 43 | 55 | 0 |  |  |  |  |  |  |  |  |  |  | 
